The values below come from patent US11572373B2, “Maytansinoid-based drug delivery systems” (LADRX CORPORATION, priority 2017, dated 2023).

Marks after values point to notes of the source that are not given here.

A short description of this data set: Stability and release kinetics of maytansinoid-HSA conjugates in buffer solution at pH 4.0 and pH 7.4. Format: physicochemical. Particulars: maytansinoid-HSA conjugate, PBS pH 7.4, 37° C. The procedure: For preparing HSA conjugates of albumin-binding maytansinoids, HSA (200 μM: 361.8 μL, 1078 μM free Cys34; 100 μM: 180.9 μL, 1078 μM free Cys34) was diluted with PBS buffer (4 mM sodium phosphate, 150 mM NaCl, pH 7.4) (200 μM: 678.2 μL; 100 μM: 859.1 μL) and DMSO (200 μM: 130.0 μL; 100 μM: 195.0 μL) and incubated in a heating block at 37° C. for 30 minutes. The albumin-binding maytansinoid was added as a 2 mM stock solution in DMSO (200 μM: 130.0 μL; 100 μM: 65.0 μL) to the preincubated HSA sample to produce a 200 μM or 100 μM solution of maytansinoid-prodrug and 300 μM or 150 μM of free Cys34. The mixture having a pH of 7.4 was allowed to react for 10 min at 37° C. and was then analyzed hourly for 24 hours by RP-HPLC (Phenomenex Aeris WP XB-C18, 3.6 μm, 250×4.6 mm).
For studying the release kinetics at pH 4.0 the mixture was acidified with a mixture of 50 mM sodium acetate buffer pH 3.0 (200 μM: 119.3 μL; 100 μM: 125.2 μL) and 1 M HCl (200 μM: 12.7 μL; 100 μM: 6.8 μL) to reach pH 4.0. The mixture was subsequently analyzed hourly for 24 hours by RP-HPLC (Phenomenex Aeris WP XB-C18, 3.6 μm, 250×4.6 mm).
The following RP-HPLC conditions were used: Phenomenex Aeris WP XB-C18 3.6 μm, 250×4.6 mm; eluent A (100% 20 mM Tris buffer pH 8.0) and eluent B (90:10, MeCN: water) eluting with a gradient of eluent B (25% 0-0.5 min, 25-35% 0.5-2.5 min, 35-85% 2.5-16 min, 85-95% 16-17 min, 95% 17-20 min, 95-25% 20-25 min, 25% 25-30 min, flow rate 1.0 mL/min). Column oven temperature 37° C.; autosampler temperature 37° C.; 20 μL of injection volume.
To quantify the percentage of free drug released, standard curves of the free maytansinoids were prepared at different concentrations (200 μM, 100 μM, 50 μM, 25 μM and 12.5 μM). The area under the curve (AUC) was determined at 250 nm.

Regarding `COc1cc2cc(c1Cl)N(C)C(=O)C[C@H](OC(=O)COc1cccc(/C(C)=N/NC(=O)c3ccc(NC(=O)CCCCCN4C(=O)C=CC4=O)cc3S(=O)(=O)O)c1)[C@]1(C)O[C@H]1[C@H](C)[C@@H]1C[C@@](O)(NC(=O)O1)[C@H](OC)/C=C/C=C(\C)C2` [Compound 31], the “free maytansinoid after 24 h at pH 7.4” value runs as follows: (measured at 100 μM) 3.7%**; (measured at 200 μM) 4.0%*.
